Where “and” joins values, the source holds several entries; their conditions need not be identical. Identical values can stand only once. Like-named read-outs stand apart in the source and are kept apart here.
What was measured:
tumors = conditions: literature; cited from earlier work
[1] = test system: DNA synthesis in HL-60 cells; assay: Inhibition of [3H-methyl]dThd incorporation into DNA of HL-60 cells; assay type: cell-based, human; conditions: for inhibition at 30 µg/mL: Homo sapiens, HL-60, at 0.03 mg/mL, read-out: % Inhibition of Precursor Incorporation, DNA
Method: (§1) For the precursor incorporation studies, each compound (in 0.3% dimethylsulfoxide) was preincubated with HL-60 cells (a human promyelocytic leukemic cell line) 2.2×10^6 /ml, for 15 min prior to the addition of the labeled precursor (obtained from ICN Radiochemicals, Irvine, Calif.) and then incubated for 30 min. The precursors used for incorporation into DNA, RNA and protein were [^3 H-methyl]dThd (1 μCi, 0.15 nmole/ml), [5-^3 H]Cyd (5 μCi, 0.23 nmol/ml), and [2,3,4,5-^3 H]L-Leu (0.5 μCi, 0.004 nmol/ml), respectively. Incorporation of radioactivity in the absence of a plant compound and in the presence of dimethylsulfoxide was used as a control.
Human promyelocytic cells (HL-60) were incubated with [^3 H-methyl]dTHDin the presence and absence of a plant alkaloid.

[2] = test system: RNA synthesis in HL-60 cells; assay: Inhibition of [5-3H]Cyd incorporation into RNA of HL-60 cells; assay type: cell-based, human; conditions: for inhibition at 30 µg/mL: Homo sapiens, HL-60, 0.5 h
Method: as §1, with “control. The control values for incorporation into DNA, RNA and protein were 8,500, 5,600 and 1,700 cpm/10^6 cells, respectively. The incubation conditions and the procedures for isolating DNA, RNA and protein fractions have been previously described (Chou, T. -C., et al., Cancer Res., 43:3074-3079 (1983)) .” for “control.”
(§2) HL-60 cells were incubated with [5-^3 H]Cyd or [2,3,4,5-^3 H]L-Leu in the presence and absence of alkaloids (0.03 mg/ml) in order to find the effects of the alkaloid on the incorporation of labeled precursors into RNA or protein. […] Over 90% of RNA and protein biosynthesis were inhibited by compounds 11, 16, 17, 22, 28, 29and 30 (Table 1). […] In most cases, the amount required to inhibit precursor incorporation into DNA was less than that to inhibit precursor incorporation into RNA or protein (i.e. DNA synthesis is inhibited most potently).

L1210 leukemia = L1210 leukemia survival time evaluation in BDF1 mice; conditions: for Day 6 AWC / MST / N/T (nine day survivors/total mice) / Survival Time, individual mice / % ILS (increase in lifespan): day 1, QDX4 ip; for % ILS (increase in lifespan): 25% or greater indicates activity; for antileukemic activity, in words: L1210, BDF mice, low doses, ip
HL-60 cells = assay: HL-60 cell growth inhibition, 72 h; assay type: cell-based, human; conditions: HL-60, 72 h; for IC50: Homo sapiens, read-out: Cell Growth Inhibition, IC50
Method: For growth inhibition studies, HL-60 cells (1.5×10^5 /ml) were grown in RPMI 1640 media (GIBCO, Grand Island, N.Y.) at 37° C. in humidified 5% CO2 for 72 h. Viable cells were determined using trypan blue exclusion and counted in a hemocytometer. The fractional inhibition for each compound concentration (0.0025-0.05 mg/ml in 0.1% dimethylsulfoxide) was analyzed with the median-effect plot using a computer program (Chou, T. -C and P. Talalay, Adv. Enzyme Regul., 22:27-55 (1984); Chou, J. and T. -C. thou, Dose-Effect analysis with microcomputers: Quantitation of ED50, LD50, synergism, antagonism, low-dose risk, receptor ligand binding and enzyme kinetics. A computer software disk for Apple II series or IBM-PC and manual. Elsevier Science Publishers, Elsevier-BioSoft, Cambridge, United Kingdom (1986)). The median-effect concentration (IC50) was determined automatically for three to five dose-effect levels. Cell growth in the absence of plant compound and in the presence of dimethylsulfoxide was used as a control. Dimethylsulfoxide alone inhibited cell growth 3.9%±1.5% during the 72 h incubation period. Those data with negative values represent activations.

[3] = test system: protein synthesis in HL-60 cells; assay: Inhibition of [2,3,4,5-3H]L-Leu incorporation into protein of HL-60 cells; assay type: cell-based, human; conditions: for inhibition at 30 µg/mL: Homo sapiens
Method: as §1, with “control. The control values for incorporation into DNA, RNA and protein were 8,500, 5,600 and 1,700 cpm/10^6 cells, respectively. The incubation conditions and the procedures for isolating DNA, RNA and protein fractions have been previously described (Chou, T. -C., et al., Cancer Res., 43:3074-3079 (1983)) .” for “control.”
as §2

L1210/Dx cells = assay: Cross-resistance studies: growth inhibition of doxorubicin-resistant L1210/Dx cells; assay type: cell-based; conditions: for (IC50) 0/(IC50) Dx: L1210/0 and L1210/Dx; for IC50: Mus musculus, L1210/Dx (doxorubicin resistant)
L1210/0 cells = assay: Cross-resistance studies: growth inhibition of doxorubicin-sensitive L1210/0 cells; assay type: cell-based; conditions: L1210/0 (doxorubicin sensitive)
[4] = at 0.03 mg/mL, read-out: % Inhibition of Precursor Incorporation, RNA
[5] = HL-60, at 0.03 mg/mL, read-out: % Inhibition of Precursor Incorporation, Protein

Row | SMILES | inhibition at 30 µg/mL [1] [%] | inhibition at 30 µg/mL [2, 4] [%] | Day 6 AWC (L1210 leukemia; 6.25 mg/kg) | MST (L1210 leukemia; 6.25 mg/kg) | N/T (nine day survivors/total mice) (L1210 leukemia; 6.25 mg/kg) | Survival Time, individual mice (L1210 leukemia; 6.25 mg/kg) | % ILS (increase in lifespan) (L1210 leukemia; 6.25 mg/kg) [%] | antileukemic activity, in words (L1210 leukemia) | cell growth inhibition, in words (HL-60 cells) | IC50 (HL-60 cells) | inhibition at 30 µg/mL [3, 5] [%] | other results
1 | CN(C)CCOc1cc2c(c3c1c(=O)c1ccccc1n3C)C=CC(C)(C)O2 [Compound 2, O-(dimethylaminoethyl)noracronycine] |  |  |  |  |  |  |  |  |  |  |  | antitumor activity, in words (tumors): significant antitumor activity
2 | COc1cc(O)c2c(=O)c3cccc(OC)c3n(C)c2c1OC [Compound 17, 5-O-Methyl-citrusinine-I] | 93.4 | 96.4 | +1.8 g | 7.0 | 0/2 | 7 | 0 | not active | significant activity against leukemic cells in vitro | 2.7 µg/mL and 8.6 µM | 93 | Day 6 AWC (L1210 leukemia; 12.5 mg/kg): +1.5 g; MST (L1210 leukemia; 12.5 mg/kg): 7.0; N/T (nine day survivors/total mice) (L1210 leukemia; 12.5 mg/kg): 0/2; Survival Time, individual mice (L1210 leukemia; 12.5 mg/kg): 7; % ILS (increase in lifespan) (L1210 leukemia; 12.5 mg/kg): 0%
3 | CC1(C)C=Cc2c(cc(O)c3c(=O)c4cccc(O)c4[nH]c23)O1 [Compound 34, Atalaphyllidine] | 78.9 |  | +1.7 g | 7.0 | 0/2 | 7 | 0 | evidence of antileukemic activity | comparable activity | 1.3 µg/mL and 4.2 µM |  | inhibition at 30 µg/mL ([2]; read-out: % Inhibition of Precursor Incorporation, RNA, at 0.03 mg/mL): 94.8%; Day 6 AWC (L1210 leukemia; 25 mg/kg): +1.5 g; MST (L1210 leukemia; 25 mg/kg): 7.5; N/T (nine day survivors/total mice) (L1210 leukemia; 25 mg/kg): 0/2; % ILS (increase in lifespan) (L1210 leukemia; 25 mg/kg): 7%; Survival Time, individual mice (L1210 leukemia; 25 mg/kg, listed as SK 32090): 7 and 8; inhibition at 30 µg/mL ([3]; HL-60, read-out: % Inhibition of Precursor Incorporation, Protein, at 0.03 mg/mL): 82.9%
4 | CC(C)=CCc1c2c(c3[nH]c4ccccc4c(=O)c3c1O)C=CC(C)(C)O2 [Compound 36, Severifoline] | 20 |  |  |  |  |  |  |  |  | > 40 µg/mL and > 111 µM |  | antitumor activity, in words (tumors): no antitumor activity
5 | Cn1c2c(O)cccc2c(=O)c2c(O)cc3c(c21)C=CC(C)(C)O3 [Compound 37, 11-Hydroxy-noracronycine] | 98.6 | 96.6 | +2.0 g | 7.0 | 0/2 | 7 | 0 | not active | comparable activity | 2.3 µg/mL and 7.1 µM | 95.3 | Day 6 AWC (L1210 leukemia; 25 mg/kg): +1.8 g; MST (L1210 leukemia; 25 mg/kg): 7.0; N/T (nine day survivors/total mice) (L1210 leukemia; 25 mg/kg): 0/2; Survival Time, individual mice (L1210 leukemia; 25 mg/kg): 7; % ILS (increase in lifespan) (L1210 leukemia; 25 mg/kg): 0%
6 | C=C(C)C1CCC2(C)CC1c1c(cc3c(c1O)c(=O)c1cccc(O)c1n3C)O2 (centres unmarked) [Compound 50, Cycloglyco-foline] | 98.7 | 55.7 |  |  |  |  |  |  | better activity than that of acronycine | 5.8 µg/mL and 14.8 µM | 92.1 | inhibition of DNA synthesis, in words ([1]; HL-60, 0.03 mg/ml): inhibited DNA synthesis significantly; inhibition of RNA biosynthesis, in words ([2]; HL-60, 0.03 mg/ml): The same results were obtained; Day 6 AWC (L1210 leukemia; 12.5 mg/kg): +1.8 g; MST (L1210 leukemia; 12.5 mg/kg): 8.5; N/T (nine day survivors/total mice) (L1210 leukemia; 12.5 mg/kg): 0/2; % ILS (increase in lifespan) (L1210 leukemia; 12.5 mg/kg): 21%; Survival Time, individual mice (L1210 leukemia; 12.5 mg/kg, listed as Sk 32091): 8 and 9; inhibition of protein biosynthesis, in words ([3]; HL-60, 0.03 mg/ml): The same results were obtained
7 | COc1cccc2c1C(=O)c1c(O)c3c(c(O)c1C2=O)C[C@@](O)(C(=O)CO)C[C@@H]3O[C@H]1C[C@H](N)[C@H](O)[C@H](C)O1 [Doxorubicin] |  |  |  |  |  |  |  |  |  |  |  | (IC50) 0/(IC50) Dx (L1210/Dx cells): 26.1; IC50 (L1210/Dx cells): 0.73 µM; IC50 (L1210/0 cells): 0.028 µM
8 | COc1cc(NS(C)(=O)=O)ccc1Nc1c2ccccc2nc2ccccc12 [m-AMSA] |  |  |  |  |  |  |  |  |  |  |  | (IC50) 0/(IC50) Dx (L1210/Dx cells): 61-610; IC50 (L1210/Dx cells): 0.061 µM; IC50 (L1210/0 cells): 0.0001 to 0.001 µM

Source: patent publication US5340818A, “Methods and compositions for inhibiting tumor cell growth” (priority 1993, dated 1994)
